# Experimental data from ChEMBL document CHEMBL5352401, “Novel cudraisoflavone J derivatives as potent neuroprotective agents for the treatment of Parkinson's disease via the activation of Nrf2/HO-1 signaling” (Eur J Med Chem, 2022).
# The source made the active and inactive calls. The calls are words filed in the database; no cut-off is given here.
# Assays:
# [1] = molecular target: T1, Nuclear factor erythroid 2-related factor 2 (Rattus norvegicus) (UniProt O54968); experiment: Induction of Nrf2 nuclear translocation in rat PC12 cells assessed as increase in phosphorylation of JNK pretreated with SP600125 for 2 hrs followed by compound addition at 10 uM for 2 to 3 hrs by Western blotting analysis; format: cell-based; settings: PC-12, time 2-3 hrs
# T1 sequence (whole entry): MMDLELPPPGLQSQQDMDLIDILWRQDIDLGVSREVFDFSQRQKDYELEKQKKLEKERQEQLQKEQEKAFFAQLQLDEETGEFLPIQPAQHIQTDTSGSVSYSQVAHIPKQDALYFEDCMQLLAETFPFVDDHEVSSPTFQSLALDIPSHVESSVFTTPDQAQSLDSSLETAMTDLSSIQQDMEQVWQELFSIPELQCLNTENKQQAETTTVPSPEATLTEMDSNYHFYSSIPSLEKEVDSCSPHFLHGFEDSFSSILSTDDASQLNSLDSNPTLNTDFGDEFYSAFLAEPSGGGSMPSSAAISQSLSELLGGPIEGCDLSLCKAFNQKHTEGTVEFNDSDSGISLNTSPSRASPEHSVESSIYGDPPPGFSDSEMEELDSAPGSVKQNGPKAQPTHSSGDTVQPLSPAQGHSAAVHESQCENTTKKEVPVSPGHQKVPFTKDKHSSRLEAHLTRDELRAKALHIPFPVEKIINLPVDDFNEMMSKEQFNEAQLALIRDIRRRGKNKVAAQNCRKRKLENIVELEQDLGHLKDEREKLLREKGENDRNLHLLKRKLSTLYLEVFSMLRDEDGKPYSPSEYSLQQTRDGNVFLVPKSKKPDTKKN
# PC-12 [2] = experiment: Neuroprotective activity in rat PC-12 cells assessed as upregulation of HO-1 expression measured at 10 uM after 3 to 6 hrs by immunoblotting analysis; format: functional, cell-based; settings: time 3-6 hrs
# PC-12 [3] = experiment: Reversal of upregulation of HO-1 in rat PC-12 cells pretreated with LY294002 for 2 hrs followed by compound addition at 10 uM for 2 to 3 hrs by Western blotting analysis; format: functional, cell-based; settings: time 2-3 hrs
# [4] = molecular target: T1, Nuclear factor erythroid 2-related factor 2 (Rattus norvegicus); experiment: Induction of Nrf2 nuclear translocation in rat PC12 cells at 10 uM for 3 hrs by Western blotting analysis; format: cell-based; settings: PC-12, filed as activator
# [5] = molecular target: T1, Nuclear factor erythroid 2-related factor 2 (Rattus norvegicus); experiment: Induction of Nrf2 nuclear translocation in rat PC12 cells assessed as change in phosphorylation of p38 MAPK level at 10 uM for 2 to 3 hrs by Western blotting analysis; format: cell-based; settings: PC-12, time 2-3 hrs
# [6] = molecular target: T1, Nuclear factor erythroid 2-related factor 2 (Rattus norvegicus); experiment: Induction of Nrf2 nuclear translocation in rat PC12 cells assessed as increase in phosphorylation of AKT at 10 uM for 2 to 3 hrs by Western blotting analysis; format: cell-based; settings: PC-12, filed as activator, time 2-3 hrs
# [7] = Neurotoxicity in rotenone induced at rat PC-12 cells assessed as cell viability pretreated with compound for 4 hrs followed by rotenone addition measured after 24 hrs by MTT assay; format: toxicity, cell-based
# PC-12 [8] = experiment: Antiinflammatory activity in rotenone induced cytotoxicity in rat PC-12 cells assessed as reduction of fluorescence signal pretreated at 10 to 30 uM for 4 hrs followed by rotenone addition treated for 6 hrs measured after 1 hr of H2-DCFDA addition by spectrophotometric analysis; format: functional, cell-based; settings: dose 10-30 µM, time 11.0 hrs
# PC-12 [9] = experiment: Cytotoxicity in rat PC-12 cells assessed as cell viability measured at 10 to 30 uM for 24 hrs by MTT assay; format: functional, cell-based; settings: dose 10-30 µM
# [10] = molecular target: T1, Nuclear factor erythroid 2-related factor 2 (Rattus norvegicus); experiment: Induction of Nrf2 nuclear translocation in rat PC12 cells assessed as increase in phosphorylation of ERK2 pretreated with U0126 for 2 hrs followed by compound addition at 10 uM for 2 to 3 hrs by Western blotting analysis; format: cell-based; settings: PC-12, time 2-3 hrs
# [11] = molecular target: KEAP1/NRF2 (Rattus norvegicus) (UniProt O54968+P57790); experiment: Inhibition of Nrf2-Keap1 protein-protein interaction in rat PC-12 cells by Western blotting analysis; format: cell-based
# PC-12 [12] = experiment: Cytotoxicity in 6-OHDA induced rat PC-12 cells assessed as cell viability pretreated with ZnPP for 30 mins followed by compound addition at 10 uM for 4 hrs and measured after 24 hrs of […] addition by MTT assay; format: functional, cell-based; settings: time 28.0 hrs
# PC-12 [13] = experiment: Antiinflammatory activity in 6-OHDA-induced cytotoxicity in rat PC-12 cells assessed as reduction of ROS production pretreated at 10 to 30 uM for 4 hrs followed by 6-OHDA addition treated for 6 hrs measured after 1 hr of H2-DCFDA addition by measuring fluorescence; format: functional, cell-based; settings: dose 10-30 µM, time 11.0 hrs
# [14] = molecular target: T1, Nuclear factor erythroid 2-related factor 2 (Rattus norvegicus); experiment: Induction of Nrf2 nuclear translocation in rat PC12 cells assessed as increase in phosphorylation of ERK2 at 10 uM for 2 to 3 hrs by Western blotting analysis; format: cell-based; settings: PC-12, filed as activator, time 2-3 hrs
# [15] = molecular target: T1, Nuclear factor erythroid 2-related factor 2 (Rattus norvegicus); experiment: Induction of Nrf2 nuclear translocation in rat PC12 cells assessed as increase in phosphorylation of Akt pretreated with LY294002 for 2 hrs followed by compound addition at 10 uM for 2 to 3 hrs by Western blotting analysis; format: cell-based; settings: PC-12, time 2-3 hrs
# PC-12 [16] = experiment: Reversal of upregulation of HO-1 in rat PC-12 cells pretreated with U0126 for 2 hrs followed by compound addition at 10 uM for 2 to 3 hrs by Western blotting analysis; format: functional, cell-based; settings: time 2-3 hrs
# PC-12 [17] = experiment: Reversal of upregulation of HO-1 in rat PC-12 cells pretreated with SP600125 for 2 hrs followed by compound addition at 10 uM for 2 to 3 hrs by Western blotting analysis; format: functional, cell-based; settings: time 2-3 hrs
# PC-12 [18] = experiment: Neuroprotective activity in rat PC-12 cells assessed as fold increase in upregulation of HO-1 expression measured at 30 uM for 6 hrs by immunoblotting analysis; format: functional
# PC-12 [19] = experiment: Antiinflammatory activity in 6-OHDA-induced cytotoxicity in rat PC-12 cells assessed as reduction of fluorescence signal pretreated at 10 to 30 uM for 4 hrs followed by 6-OHDA addition treated for 6 hrs measured after 1 hr of H2-DCFDA addition by spectrophotometric analysis; format: functional, cell-based; settings: dose 10-30 µM, time 11.0 hrs
# PC-12 [20] = experiment: Antiinflammatory activity in rotenone induced cytotoxicity in rat PC-12 cells assessed as reduction of ROS production pretreated at 10 to 30 uM for 4 hrs followed by rotenone addition treated for 6 hrs measured after 1 hr of H2-DCFDA addition by measuring fluorescence; format: functional, cell-based; settings: dose 10-30 µM, time 11.0 hrs
# [21] = molecular target: T1, Nuclear factor erythroid 2-related factor 2 (Rattus norvegicus); experiment: Induction of Nrf2 nuclear translocation in rat PC12 cells assessed as increase in phosphorylation of JNK at 10 uM for 2 to 3 hrs by Western blotting analysis; format: cell-based; settings: PC-12, filed as activator, time 2-3 hrs
# [22] = Neurotoxicity in rotenone induced at rat PC-12 cells assessed as cell viability at 30 uM pretreated for 4 hrs followed by rotenone addition measured after 24 hrs by MTT assay (reference value: 53.4 +/- 2.6%); format: toxicity, cell-based; settings: time 28 hrs, read-out: Activity
# PC-12 [23] = experiment: Neuroprotective activity against 6-OHDA-induced cytotoxicity in rat PC-12 cells at 10 to 30 uM for 4 hrs followed by exposure to 6-OHDA measured after 24 hrs by MTT assay; format: functional, cell-based; settings: dose 10-30 µM, time 28.0 hrs
# PC-12 [24] = experiment: Neuroprotective activity in rat PC-12 cells assessed as upregulation of HO-1 expression measured for 6 hrs by immunoblotting analysis; format: functional, cell-based; settings: dose 1-30 µM
# Brain = experiment: Antioxidant activity in Fe2+/L-ascorbic acid induced Sprague-Dawley rat brain homogenate assessed as inhibition of lipid peroxide production measured at 100 uM after 60 mins by microplate reader method relative to control; format: functional, tissue-based
# [25] = molecular target: T1, Nuclear factor erythroid 2-related factor 2 (Rattus norvegicus); experiment: Induction of Nrf2 nuclear translocation in rat PC12 cells assessed as increase in phosphorylation of ERK1 pretreated with U0126 for 2 hrs followed by compound addition at 10 uM for 2 to 3 hrs by Western blotting analysis; format: cell-based; settings: PC-12, time 2-3 hrs
# PC-12 [26] = experiment: Upregulation of HO-1 expression in si-RNA mediated Nrf2 knock down rat PC-12 cells measured by immunoblotting analysis; format: functional, cell-based
# PC-12 [27] = experiment: Neuroprotective activity against 6-OHDA-induced cytotoxicity in rat PC-12 cells for 4 hrs followed by exposure to 6-OHDA measured after 24 hrs by MTT assay; format: functional, cell-based; settings: dose 0.1-30 µM, time 28.0 hrs
# [28] = molecular target: T1, Nuclear factor erythroid 2-related factor 2 (Rattus norvegicus); experiment: Inhibition of Nrf2 nuclear translocation in rat PC12 cells assessed as increase in phosphorylation of p38 MAPK pretreated with SB203580 for 2 hrs followed by compound addition at 10 uM for 2 to 3 hrs by Western blotting analysis; format: cell-based; settings: PC-12, time 2-3 hrs
# [29] = molecular target: T1, Nuclear factor erythroid 2-related factor 2 (Rattus norvegicus); experiment: Induction of Nrf2 nuclear translocation in rat PC12 cells assessed as increase in phosphorylation of ERK1 at 10 uM for 2 to 3 hrs by Western blotting analysis; format: cell-based; settings: PC-12, filed as activator, time 2-3 hrs
# PC-12 [30] = experiment: Cytotoxicity in rat PC-12 cells assessed as cell viability incubated for 24 hrs by MTT assay; format: functional, cell-based; settings: PC-12, 24 h
# PC-12 [31] = experiment: Cytotoxicity in rat PC-12 cells assessed as cell viability measured at 30 uM for 24 hrs by MTT assay; format: functional, cell-based
# PC-12 [32] = experiment: Neuroprotective activity against 6-OHDA-induced cytotoxicity in rat PC-12 cells at 0.1 to 30 uM for 4 hrs followed by exposure to 6-OHDA measured after 24 hrs by MTT assay relative to control; format: functional; settings: dose 0.1-30 µM, time 28 hrs
# PC-12 [33] = experiment: Cytotoxicity in rat PC-12 cells assessed as cell viability incubated at 0.1 to 30 uM for 24 hrs by MTT assay relative to control; format: functional; settings: dose 0.1-30 µM
# PC-12 [34] = experiment: Neuroprotective activity against 6-OHDA-induced cytotoxicity in rat PC-12 cells at 30 uM for 4 hrs followed by exposure to 6-OHDA measured after 24 hrs by MTT assay; format: functional, cell-based; settings: time 28.0 hrs
smiles,measurement,setting,value
CC1(C)Oc2c(c(O)cc3occ(-c4ccc(F)cc4F)c(=O)c23)CC1O (stereo not given),Activity,[1],inactive
same,Activity,PC-12 [2],Active
same,Activity,PC-12 [3],Active
same,Activity,[4],Active
same,Activity,[5],inactive
same,Activity,[6],Active
same,IC50,[7],4.7 µM
same,Activity,PC-12 [8],Active
same,Activity,PC-12 [9],Active
same,Activity,[10],inactive
same,inhibition,[11],Active
same,Activity,PC-12 [12],Active
same,Activity,PC-12 [13],Active
same,Activity,[14],Active
same,Activity,[15],inactive
same,Activity,PC-12 [16],Active
same,Activity,PC-12 [17],Active
same,fold change (FC),PC-12 [18],1.5
same,Activity,PC-12 [19],Active
same,Activity,PC-12 [20],Active
same,Activity,[21],Active
same,viability at 30 µM,[22],≤ 79.9%
same,Activity,PC-12 [23],Active
same,Activity,PC-12 [24],Dose-Dependent Effect
same,inhibition,Brain,50.5%
same,Activity,[25],inactive
same,Activity,PC-12 [26],inactive
same,Activity,PC-12 [27],Dose-Dependent Effect
same,inhibition,[28],Active
same,Activity,[29],Active
same,IC50,PC-12 [30],4.2 µM
CC1(C)Oc2c(c(O)cc3occ(-c4ccc(C(F)(F)F)cc4)c(=O)c23)CC1O (stereo not given),Activity,PC-12 [9],Active
CC(C)Oc1ccc(-c2coc3cc4c(c(OC(C)C)c3c2=O)C=CC(C)(C)O4)cc1,Activity,PC-12 [31],Active
CC1(C)Oc2c(c(O)cc3occ(-c4ccccc4)c(=O)c23)CC1O (stereo not given),Activity,PC-12 [9],inactive
same,inhibition (INH),PC-12 [32],49.9%
same,Activity,PC-12 [33],75%
same,Activity,PC-12 [23],Active
same,Activity,PC-12 [27],Dose-Dependent Effect
same,Activity,PC-12 [34],Active
COc1ccc(-c2coc3cc(O)c4c(c3c2=O)OC(C)(C)C(O)C4)c(OC)c1 (stereo not given),Activity,PC-12 [9],inactive
same,Activity,PC-12 [23],inactive
C#CCN[C@@H]1CCc2ccccc21,Activity,PC-12 [9],Active
same,Activity,PC-12 [23],Active
CC(C)Oc1ccc(-c2coc3cc4c(c(O)c3c2=O)C=CC(C)(C)O4)cc1,Activity,PC-12 [23],inactive
CC1(C)Oc2c(c(O)cc3occ(-c4cc(F)cc(F)c4)c(=O)c23)CC1O (stereo not given),Activity,PC-12 [9],Active
same,Activity,PC-12 [23],inactive
COc1cc(OC)cc(-c2coc3cc(O)c4c(c3c2=O)OC(C)(C)C(O)C4)c1 (stereo not given),Activity,PC-12 [9],inactive
same,Activity,PC-12 [23],inactive
Cc1cc(-c2coc3cc(O)c4c(c3c2=O)OC(C)(C)C(O)C4)ccc1F (stereo not given),Activity,PC-12 [9],Active
same,Activity,PC-12 [23],inactive
